For orientation: IC50 means the point on the concentration scale where inhibition reaches its midpoint.

The results in this text go back to paper PMC2690590, “Functional recombinant MHC class II molecules and high-throughput peptide-binding assays” (Immunome Research, 2009).

Test [1] addresses T1, DR2a (DRA*0101/DRB5*0101) (Homo sapiens, UniProt P01903+Q30154).
T1 construct: DRA*01011-181LZFos; DRB5*01011-190LZJunBSP; made in house
In words: Competitive LOCI peptide-MHC-II binding assay, DR2a.

Test [2] has as its target T1, DR2a (DRA*0101/DRB5*0101). In words: Direct LOCI peptide-MHC-II binding assay, DR2a.
A further test deals with T2, DR3 (DRA*0101/DRB1*0301) (Homo sapiens, UniProt P01903+P01911, A100K/A102G/A103R/A169T/F55Y/I96L/K41T/L162R/M171V/P40S/Q125H/Q178H/Q39Y/R42S/S66N/T106N/T262R/W38E/Y61H).
T2 construct: DRA*01011-181LZFos; DRB1*03011-190LZJunBSP; made in house
Description: Direct LOCI peptide-MHC-II binding assay, DR3.

For the next test, the target named is T3, DR4 (DRA*0101/DRB1*0401) (Homo sapiens, UniProt P01903+P01911, A100K/A169T/F76Y/I96L/K127E/L162R/M171V/N62H/P40V/Q125Y/R42H/S133A/S149N/S66Y/V115G/V209L/W38E).
T3 construct: DRA*01011-181LZFos; DRB1*04011-190LZJunBSP; made in house
In words: Direct LOCI peptide-MHC-II binding assay, DR4.

Test [3] deals with T4, DRB1*0813 (DRA*0101/DRB1*0813) (Homo sapiens, UniProt P01903+P01911, A100R/A103L/A169T/F76Y/H45Y/I96L/K41T/L162R/M171V/P40S/Q125H/Q178H/Q39Y/Q99D/R218S/R42G/S66Y/V115G/W38E).
T4 construct: DRA*01011-181LZFos; DRB1*08131-190LZJunBSP; made in house
In words: Direct LOCI peptide-MHC-II binding assay, DRB1*0813.

Test [4] has as its target T5, DRB3*0301 (DRA*0101/DRB3*0301) (Homo sapiens, UniProt P01903+P79483, A169T/A212P/D57E/G115V/L67V/Q178H/R103Q/R40L/Y55F).
T5 construct: DRA*01011-181LZFos; DRB3*03011-190LZJunBSP; made in house
In words: Direct LOCI peptide-MHC-II binding assay, DRB3*0301.

Test [5] addresses DP401 (DPA1*0103/DPB1*0401) (Homo sapiens, UniProt P04440+P20036). In words: Direct LOCI peptide-MHC-II binding assay, DP401.
A further test concerns the target T6, I-E^d (Mus musculus, UniProt P01904+P01915).
T6 construct: I-E^dA1-191LZFos; I-E^dB1-198LZJunBSP; made in house
Description: Direct LOCI peptide-MHC-II binding assay, I-E^d.

[6] abbreviates: pH 6-7.5, 48 h 18°C, read-out: DR2a Komp IC50.
[7] abbreviates: pH 6, 48 h 18°C, read-out: DR2a pH6 affinity.
Setting [8] is: pH 6-7, 48 h 18°C, read-out: DR3 affinity.
Setting [9] is: pH 6-7.5, 48 h 18°C, read-out: DR4 affinity.
Where [10] appears, read: pH 6-7.5, 48 h 18°C, read-out: DRB1*0813 affinity.
Where [11] appears, read: pH 7, 48 h 18°C, read-out: DRB3*0301 affinity.
The mark [12] stands for this setting: pH 7, 48 h 18°C, read-out: DP401 affinity.
Setting [13] is: 48 h 18°C, read-out: I-E^D affinity.

Like-named read-outs stand apart in the source and are kept apart here. Where no end group is shown, it is not given here. A value given as a limit tells only on which side of the number the result lay.

The molecule `CC[C@H](C)[C@H](NC(=O)[C@@H](N)Cc1ccc(O)cc1)C(=O)N[C@@H](CC(=O)O)C(=O)N[C@H](C(=O)N[C@@H](Cc1c[nH]c2ccccc12)C(=O)N[C@@H](CC(C)C)C(=O)NCC(=O)NCC(=O)N[C@@H](CC(C)C)C(=O)N[C@@H](C)C(=O)N[C@@H](CCC(=O)O)C(=O)N[C@@H](CC(N)=O)C(=O)N[C@@H](Cc1ccccc1)C(=O)N[C@@H](CC(C)C)C(=O)N1CCC[C@H]1C(=O)N[C@@H](Cc1ccc(O)cc1)C(=O)O)C(C)C` [Thyroid peroxidase] gave an IC50 in test [1] (DR2a Komp IC50 (nM)) of 691 nM. The Kd is 2.14 µM in test [2]; greater than 5 µM on DR3 (DRA*0101/DRB1*0301); greater than 5000 nM on DR4 (DRA*0101/DRB1*0401) (DR4 affinity (nM)); greater than 5 µM in test [3]; 3.18 µM in test [4]; 602 nM in test [5] (DP401 affinity (nM)). At I-E^d (I-E^D affinity (nM)), this molecule returned a Kd greater than 5000 nM.

Consider FLIDLAFLI [Pox.o42.con A2], for which the IC50 in test [1] (setting [6]) came out at 4280 nM. Also, the Kd in test [2] (setting [7]) is greater than 5 µM; at DR3 (DRA*0101/DRB1*0301) (setting [8]) it was greater than 5 µM; on DR4 (DRA*0101/DRB1*0401) (setting [9]), greater than 5000 nM; in test [3] (setting [10]) it was greater than 5 µM; in test [4] (setting [11]), greater than 5 µM; in test [5] (setting [12]), 179 nM. Besides, at I-E^d (setting [13]), the Kd was greater than 5000 nM.

In test [1] (DR2a Komp IC50 (nM)), GVTYEIDLTNKN [Mycobact leprea] had an IC50 greater than 5000 nM. Moreover, the Kd in test [2] is greater than 5 µM; at DR3 (DRA*0101/DRB1*0301), 4.35 µM; at DR4 (DRA*0101/DRB1*0401) (DR4 affinity (nM)), 2550 nM; in test [3], greater than 5 µM; in test [4], greater than 5 µM; in test [5] (DP401 affinity (nM)) it was greater than 5000 nM. The molecule further displayed a Kd on I-E^d (I-E^D affinity (nM)) greater than 5000 nM.

In the case of “HHHHHHIEGRFAALWFRNHFVFGGGTK [6xH Lambda 2(315)]”, the IC50 in test [1] (DR2a Komp IC50 (nM)) worked out at 20 nM. For the same molecule, the Kd was 0.005 µM in test [2]; 0.882 µM on DR3 (DRA*0101/DRB1*0301); 11 nM on DR4 (DRA*0101/DRB1*0401) (DR4 affinity (nM)); 0.008 µM in test [3]; 1.2 µM in test [4]; 2 nM in test [5] (DP401 affinity (nM)). Moreover, the Kd at I-E^d (I-E^D affinity (nM)) came out at 26 nM.

The molecule IQMLKNGKKIPKVEMS [Murine β2m] registered an IC50 in test [1] (DR2a Komp IC50 (nM)) of 3 nM. Besides, the Kd in test [2] was 0.006 µM; at DR3 (DRA*0101/DRB1*0301), 0.021 µM; on DR4 (DRA*0101/DRB1*0401) (DR4 affinity (nM)) it was greater than 5000 nM; in test [3], 0.073 µM; in test [4], 0.07 µM; in test [5] (DP401 affinity (nM)), greater than 5000 nM. This molecule showed a Kd on I-E^d (I-E^D affinity (nM)) of 117 nM.

Turning to PIVQNIQGQMVHQ [HIV], the IC50 in test [1] (DR2a Komp IC50 (nM)) is 852 nM. Also, the Kd in test [2] was 0.447 µM; at DR3 (DRA*0101/DRB1*0301), 0.471 µM; at DR4 (DRA*0101/DRB1*0401) (DR4 affinity (nM)), greater than 5000 nM; in test [3], greater than 5 µM; in test [4], 0.023 µM; in test [5] (DP401 affinity (nM)) it was greater than 5000 nM. On I-E^d (I-E^D affinity (nM)), this molecule came in with a Kd greater than 5000 nM.

As to PLKAEIAQRLEDV [Influenza], in test [1], the IC50 was found to be 41 nM. Moreover, the Kd was 0.065 µM in test [2]; 0.134 µM on DR3 (DRA*0101/DRB1*0301); 2680 nM on DR4 (DRA*0101/DRB1*0401); greater than 5 µM in test [3]; 0.011 µM in test [4]; 2090 nM in test [5]. Moreover, the Kd at I-E^d is greater than 5000 nM.

RMIAISAKV [Pox.o42.con.im. A2]: the IC50 in test [1] (setting [6]) is 1990 nM. Besides, the Kd in test [2] (setting [7]) is 1.65 µM; at DR3 (DRA*0101/DRB1*0301) (setting [8]), 0.516 µM; at DR4 (DRA*0101/DRB1*0401) (setting [9]), greater than 5000 nM; in test [3] (setting [10]), 0.267 µM; in test [4] (setting [11]), 1.26 µM; in test [5] (setting [12]), greater than 5000 nM. Further, the Kd on I-E^d (setting [13]) was greater than 5000 nM.

YILLKKILSSRFNQM [Plasmodium Falciparum]: the IC50 in test [1] (DR2a Komp IC50 (nM)) is 2 nM; in test [1] (IC50, DR2a inhibition assay), 0.6 nM. Further, the Kd stood at 0.004 µM in test [2]; 0.032 µM on DR3 (DRA*0101/DRB1*0301); 94 nM at DR4 (DRA*0101/DRB1*0401) (DR4 affinity (nM)); 133 nM on DR4 (DRA*0101/DRB1*0401) (KD, DR4); 0.004 µM in test [3]; 0.001 µM in test [4]. Moreover, the Kd in test [5] (DP401 affinity (nM)) came out at 1 nM; in test [5] (KD, DP401) it was 0.8 nM; on I-E^d (I-E^D affinity (nM)), 20 nM; on I-E^d (KD, I-E^d), 14 nM.
